Assay results taken from PubChem BioAssay (NCI).
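Five concentrations, 48 hours, 96-well plates. TGI: total growth inhibition.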

How the values were obtained:
Assay in all cases: NCI-60 cell line screen, 48 h
[1] = tested on: K-562 leukemia
[2] = tested on: COLO 205 colon
[3] = tested on: SK-MEL-5 melanoma
[4] = tested on: 786-0 renal
[5] = tested on: NCI-H522 lung
[6] = tested on: OVCAR-5 ovarian
[7] = tested on: ACHN renal
[8] = tested on: UACC-62 melanoma
[9] = tested on: MDA-N
[10] = tested on: HCT-15 colon
[11] = tested on: MDA-MB-435
[12] = tested on: NCI-H226 lung
[13] = tested on: PC-3 prostate
[14] = tested on: A549 NSCLC
[15] = tested on: HOP-62 NSCLC
[16] = tested on: HS 578T breast
[17] = tested on: HCT-116 colon
[18] = tested on: HOP-92 NSCLC

| SMILES | TGI [1] | TGI [2] | TGI [3] | TGI [4] | TGI [5] | TGI [6] | TGI [7] | TGI [8] | TGI [9] | TGI [10] | TGI [11] | TGI [12] | TGI [13] | TGI [14] | TGI [15] | TGI [16] | TGI [17] | TGI [18] |
| --- | --- | --- | --- | --- | --- | --- | --- | --- | --- | --- | --- | --- | --- | --- | --- | --- | --- | --- |
| COC(=O)c1c(C(=O)OC)c2ccccn2c1-c1cc(OC)c(Br)c(=O)o1 | > 100 µM | > 100 µM | > 100 µM | > 100 µM | > 100 µM | > 100 µM | > 100 µM | > 100 µM | > 100 µM | > 100 µM | > 100 µM | > 100 µM | > 100 µM | > 100 µM | > 100 µM | > 100 µM | > 100 µM |  |
| COCCN(CCNC(=O)c1cccc2c(N)c3cccc(C)c3nc12)CCOC |  | 2.13 µM | 2.65 µM | 8.62 µM | 0.894 µM | 15.6 µM | 13.5 µM | 10.6 µM | 2.75 µM | 13 µM | 11 µM | 6.15 µM | 8.9 µM | 8.48 µM | 11.3 µM | 9.86 µM |  | > 57.7 µM |
| Cc1c(C)c(C)c(Cn2[nH]c(=O)n(C)c2=O)c(C)c1C | > 100 µM | > 100 µM | > 100 µM | > 100 µM | > 100 µM |  | > 100 µM | > 100 µM | > 100 µM | > 100 µM | > 100 µM | > 100 µM | > 100 µM | > 100 µM | > 100 µM | > 100 µM | > 100 µM | > 100 µM |
| CCOC(=O)NN(C(=O)OCC)C(C(=O)C1=CCCCC1)N(NC(=O)OCC)C(=O)OCC | > 100 µM | > 100 µM | > 100 µM | > 100 µM | > 100 µM | > 100 µM | > 100 µM |  | > 100 µM | > 100 µM | > 100 µM | > 100 µM | > 100 µM | > 100 µM | > 100 µM | > 100 µM | > 100 µM | > 100 µM |
| C=CC(O)(CBr)CCC(Br)C(=C)C (configuration not stated) | > 10 µM | > 10 µM | > 10 µM | > 10 µM | > 10 µM | > 10 µM | > 10 µM | > 10 µM | > 10 µM | > 10 µM | > 10 µM | > 10 µM | > 10 µM | > 10 µM | > 10 µM | > 10 µM | > 10 µM |  |
| CC1(c2sccc2Cl)CC(c2sccc2Cl)=C(C#N)C(=C(C#N)C#N)N1 (configuration not stated) |  | 41.8 µM | 33.3 µM | 34.5 µM | 35.8 µM | 41.7 µM | 32.5 µM | 32.5 µM | 35 µM | 35 µM | 48.3 µM |  | 32.8 µM | 75.6 µM | 37.3 µM | 48.5 µM | 32.2 µM |  |
| Cc1cc(S(=O)(=O)N2CCNNC2=O)c(S)cc1Cl | > 100 µM | > 100 µM | > 100 µM | 43 µM | 66.6 µM | > 100 µM | > 100 µM | > 100 µM | > 100 µM | > 100 µM | > 100 µM | > 100 µM | > 100 µM | > 100 µM |  | > 100 µM |  | > 100 µM |
| COC(=O)C1CCC(=O)N1C(c1cc(OC)c(OC)c(OC)c1)c1cc(OC)c(OC)c(OC)c1 (configuration not stated) | > 100 µM |  |  | > 100 µM | > 100 µM | > 100 µM | > 100 µM | > 100 µM | > 100 µM | > 100 µM | > 100 µM |  | > 100 µM | > 100 µM | > 100 µM | > 100 µM | > 100 µM | > 100 µM |
| O=P1(c2ccccc2)c2ccccc2-c2ccccc21 | > 100 µM | > 100 µM | > 100 µM | > 100 µM | > 100 µM |  |  | > 100 µM | > 100 µM | > 100 µM | > 100 µM | > 100 µM | > 100 µM | > 100 µM | > 100 µM | > 100 µM | > 100 µM | > 100 µM |
| Oc1ccc([C@H]2c3c(O)cc(O)cc3C3c4c(cc(O)cc4[C@@H]2[C@H]2c4cc(O)cc5c4C(c4cc(O)cc(O)c4[C@@H]2c2ccc(O)cc2)[C@@H](c2ccc(O)cc2)O5)O[C@@H]3c2ccc(O)cc2)cc1 (some centres not stated) | > 100 µM | 8.15 µM | > 100 µM | > 100 µM | > 100 µM | > 100 µM | > 100 µM | > 100 µM | > 100 µM | > 100 µM | > 100 µM | > 100 µM | > 100 µM | > 100 µM | > 100 µM | > 100 µM | > 100 µM |  |
| CC(=O)Oc1cc(S(=O)(=O)Nc2n[nH]c(Nc3ccc(C)cc3)n2)c(S)cc1Cl | > 100 µM | > 100 µM | > 100 µM | > 100 µM | > 100 µM | > 100 µM | > 100 µM | > 100 µM | > 100 µM | > 100 µM | > 100 µM |  | > 100 µM | > 100 µM |  | > 100 µM | > 100 µM | > 100 µM |
| COC(=O)C1CCC(=S)N1C(=O)OCc1ccccc1 (configuration not stated) | > 100 µM | > 100 µM | > 100 µM | > 100 µM | > 100 µM | > 100 µM | > 100 µM | > 100 µM | > 100 µM | > 100 µM | > 100 µM |  | > 100 µM | > 100 µM | > 100 µM | > 100 µM | > 100 µM | > 100 µM |
| CCOC(=O)C(NC(=O)c1ccccc1)(Nc1ccc(S(=O)(=O)Nc2ncccn2)cc1)C(F)(F)F (configuration not stated) | > 100 µM | > 100 µM | > 100 µM | > 100 µM |  | > 100 µM | > 100 µM | > 100 µM | > 100 µM | > 100 µM | > 100 µM | > 100 µM | > 100 µM | > 100 µM | > 100 µM | > 100 µM | > 100 µM | > 100 µM |
| CC(=O)Nc1ccc2nc(-c3ccccn3)c(-c3ccccn3)nc2c1 | > 100 µM | > 100 µM | > 100 µM | > 100 µM | > 100 µM | > 100 µM | > 100 µM | > 100 µM | > 100 µM | > 100 µM | > 100 µM | > 100 µM | > 100 µM | > 100 µM |  | > 100 µM |  | > 100 µM |
| CCNC(=O)c1cc(Cl)ccc1NC(=O)C12CC3CC(CC(C3)C1)C2 | > 100 µM | > 100 µM | 76.1 µM | 61 µM | > 100 µM | > 100 µM | > 100 µM |  | 70.9 µM | > 100 µM | > 100 µM | > 100 µM | > 100 µM | > 100 µM | > 100 µM | > 100 µM | > 100 µM | > 100 µM |
| S=C(NCCc1ccccn1)N/N=C/c1ccccn1 |  | 0.452 µM | 2.69 µM | > 89.7 µM | 1.57 µM | > 100 µM | 4.82 µM | 4.59 µM | > 100 µM | > 100 µM | > 100 µM | 0.986 µM | > 100 µM | 7.68 µM | 0.0696 µM | > 100 µM | < 0.01 µM |  |
| CCOC(=O)c1nc2ccc(C(F)(F)F)cc2nc1Nc1cc(OC)c(OC)c(OC)c1 | > 100 µM | > 100 µM | > 100 µM | > 100 µM | > 100 µM | > 100 µM | > 100 µM | > 100 µM | > 100 µM | > 100 µM | > 100 µM |  | > 100 µM | > 100 µM | > 100 µM | > 100 µM | > 100 µM | > 100 µM |
| Clc1cc2nn(C3CCCCO3)nc2cc1Cl (configuration not stated) | > 100 µM | > 100 µM | > 100 µM | > 100 µM | > 100 µM | > 100 µM | > 100 µM | > 100 µM | > 100 µM | > 100 µM | > 100 µM | > 100 µM | > 100 µM | > 100 µM | > 100 µM | > 100 µM | > 100 µM |  |
| O=[N+]([O-])C(/C=C(\Cl)[N+](=O)[O-])=C1Nc2ccccc2N1 | > 100 µM | > 100 µM | > 100 µM | > 100 µM | > 100 µM |  | > 100 µM | > 100 µM | > 100 µM | > 100 µM | > 100 µM | 97.2 µM | > 100 µM | > 100 µM | > 100 µM | > 100 µM | > 100 µM | 87 µM |
| CCCCn1c(CSc2ccc(Cl)cc2)c(C(=O)OCC)c2cc(OC)c(Br)cc21 | > 100 µM | > 100 µM | > 100 µM | > 100 µM | > 100 µM | > 100 µM | > 100 µM | > 100 µM | > 100 µM | > 100 µM | > 100 µM | > 100 µM | > 100 µM | > 100 µM | > 100 µM | > 100 µM | > 100 µM |  |
| Cc1ccc(C2(c3ccc(Cl)cc3)c3ccccc3C3=NCCN32)cc1 (configuration not stated) | > 100 µM | 18.7 µM | 23.2 µM | 26.9 µM |  | 26 µM | 19.8 µM | 20 µM | 12.4 µM | 24 µM | 10.1 µM | 35.6 µM | 21.6 µM | 25.3 µM | 23.8 µM | 33.4 µM | 10.1 µM | 18.1 µM |
